Assay results taken from patent US12648569B2 (priority 2022, dated 2026).
Where a name gives a salt, the structure may show the parent alone.

test system: Ralstonia solanacearum R.s (MN R.s1); format: in vivo; conditions: tomato seedlings, roots soaked 10 min, R.s irrigated after 7 d

What does the source list for neophytomycin [Positive control group]?
Control effect/%: 37.30%; Disease index/%: 14.00%; Morbidity/%: 16.70%

test system: M173; conditions: not given

For `CN(C)C(=S)SSC(=S)N(C)C` [Thiram], which Compatibility is on record?
Its Compatibility is “Compatible”.

Which Compatibility does the source give for `NC(N)=O` [Urea] here?
Its Compatibility is “Compatible”.

For `CCO[PH](=O)O` [Fosetyl-aluminum], which Compatibility is on record?
Its Compatibility is “Compatible”.

`COCC(=O)N(c1c(C)cccc1C)[C@H](C)C(=O)OC` [Metalaxyl-M] was tested. Which Compatibility did it give?
Its Compatibility is “Compatible”.

For `CN1COCN(Cc2cnc(Cl)s2)/C1=N\[N+](=O)[O-]` [Thiamethoxam], which Compatibility is on record?
Its Compatibility is “Compatible”.

`N.N.O=S(=O)(O)O` [Ammonium sulfate] was tested. Which Compatibility did it give?
The Compatibility was “Compatible”.

Which Compatibility does the source give for `O=[N+]([O-])c1cc(C(F)(F)F)c(Cl)c([N+](=O)[O-])c1Nc1ncc(C(F)(F)F)cc1Cl` [Fluazinam] here?
Its Compatibility is “Compatible”.

With `O=[N+]([O-])c1c(Cl)c(Cl)c(Cl)c(Cl)c1Cl` [Quintozene] as the compound, how does the Compatibility read?
Its Compatibility is “Compatible”.

With `COC(=O)Nc1nc2ccccc2[nH]1` [Carbendazim] as the compound, how does the Compatibility read?
Its Compatibility is “Compatible”.

How did the Compatibility turn out when `N#Cc1c(Cl)c(Cl)c(Cl)c(C#N)c1Cl` [Chlorothalonil] was run?
The Compatibility was “Compatible”.

How did the Compatibility turn out when `CN/C(=N/CC1CCOC1)N[N+](=O)[O-]` (stereo not shown) [Dinotefuran] was run?
Its Compatibility is “Compatible”.

`O=P([O-])(O)O.[K+]` was tested. Which Compatibility did it give?
Its Compatibility is “Compatible”.

Which Compatibility does the source give for `CC1(C)[C@H](C(=O)O[C@H](C#N)c2cccc(Oc3ccccc3)c2)[C@@H]1/C=C(\Cl)C(F)(F)F` [Gamma-cyhalothrin] here?
Its Compatibility is “Compatible”.

Which Compatibility does the source give for `CCCOC(=O)NCCCN(C)C` [Propamocarb hydrochloride] here?
The Compatibility was “Compatible”.

test system: Ralstonia solanacearum MN R.s1 strain; format: in vivo; conditions: tomato seedlings, leaf cutting with scissors soaked in agent + R.s suspension, 7 d at 30° C.

With neophytomycin [Positive control group] as the compound, how does the Mortality/% read?
Its Mortality/% is 16.67%.

same assay, conditions: tomato seedlings, leaf cutting, relative to negative control

For neophytomycin [Positive control group], which Relative control effect/% is on record?
The Relative control effect/% was 81.01%.
